Where “and” joins values, the source holds several entries; their conditions need not be identical. Equal entries are not always repeated. Structures can show the parent of a compound that is named as a salt. Where two headings read alike, the source gives them in different places.
Tests used:
[1] = system: Candidatus Liberibacter asiaticus (Las); type: in vivo
[2] = system: Ca. Liberibacter asiaticus; type: in vivo, Candidatus Liberibacter asiaticus; conditions: for CT, 1 (mean CT values 1-week after injection) / CT, 0 (mean CT values prior to injection): 4 trees; for CT, 0 (mean CT values prior to injection): baseline; for Effect on Las bacterial populations (in words): second trial, statistical significance only in the first trial
[3] = system: β-1,3-glucanase gene (PR-2), calS1, pp2; type: in vivo, Citrus sinensis; conditions: for PR-2, calS1 or pp2 gene expression (in words): AA 60 μM, INA 0.1 mM
[4] = system: Candidatus Liberibacter asiaticus (Las); type: in vivo; remark: listed apart in the source
[5] = system: HLB disease; experiment: Trial I (Example 3): HLB disease severity (sAUDPS), Midsweet orange, foliar spray; type: in vivo, Citrus sinensis; conditions: end of the experiment
[6] = system: Candidatus Liberibacter asiaticus (Las); type: in vivo; conditions: BABA 1.0 mM, 2-DDG 100 μM; for Reduction of Las titer compared to control at the end of the experiments: Example 5, Murcott mandarin (10-year), foliar spraying
[7] = system: Candidatus Liberibacter asiaticus (Las); type: in vivo; conditions: Example 6; Valencia sweet orange (4-year); BABA 0.2-1.0 mM, 2-DDG 100 μM; foliar spraying
[8] = system: Midsweet orange; set-up: species or system Citrus sinensis; conditions: in vivo
[9] = system: β-1,3-glucanase gene (PR-2), calS1, pp2; type: in vivo, Citrus sinensis; conditions: 2-DDG 100 μM
[10] = system: Midsweet orange; type: in vivo, Citrus sinensis; conditions: BABA 150 μM, INA 0.5 mM, AA 600 μM, CuSO4 0.3 mM, alone or combined
[11] = November 2013, BABA 15 μM, INA 0.1 mM, AA 60 μM
[12] = Trial 2 (September, 2014), trunk injection SA 8, OTC 7, OA, PPD, ICD, AA, BABA 5 mg ai/tree
[13] = November 2013, BABA 0.2 mM, INA 0.1 mM, AA 60 μM, 2-DDG 10 μM
[14] = November 2013, BABA 1.0 mM, INA 0.5 mM, BTH 1.0 mM, AA 600 μM, 2-DDG 100 μM, alone or combined
[15] = October 2014 (end of the experiment), BABA 0.2 mM, INA 0.1 mM, AA 60 μM, 2-DDG 10 μM
[16] = October 2014 (end of the experiment), BABA 1.0 mM, INA 0.5 mM, BTH 1.0 mM, AA 600 μM, 2-DDG 100 μM, alone or combined
[17] = Trial 1 (July, 2014), trunk injection SA 32, OA 40, PPD 40, ICD 67, OTC 50 mg ai/tree

| Compound | ΔCT = CT, 1 − CT, 0 [2, 12] | CT, 1 (mean CT values 1-week after injection) [2, 12] | CT, 0 (mean CT values prior to injection) [2, 12] | Effect on Las bacterial titer versus control one week after injection (in words) ([2]; trunk injection, both trials) | Las population [4, 13] | Las population [4, 15] | ΔCT = CT, 1 − CT, 0 [2, 17] | CT, 1 (mean CT values 1-week after injection) [2, 17] | CT, 0 (mean CT values prior to injection) [2, 17] | also measured |
| --- | --- | --- | --- | --- | --- | --- | --- | --- | --- | --- |
| CC(N)CC(=O)O (racemic) [BABA, β-aminobutyric acid] | 0.50 | 22.60 | 22.10 | greatly decreased | (3.45 ± 0.32) × 10^6 Cells/g of plant tissue | (5.84 ± 0.25) × 10^6 Cells/g of plant tissue |  |  |  | Reduction of Las titer compared to control at the end of the experiments ([1]; Example 3, Midsweet orange (7-year), BABA 15 μM-150 μM, foliar spraying): 0.63 log unit per gram plant tissue; Las population [1, 11]: (3.67 ± 0.59) × 10^6 Cells/g of plant tissue; Las population ([1]; November 2013, BABA 150 μM): (6.48 ± 0.61) × 10^6 Cells/g of plant tissue; PR-2 gene expression (in words) ([3]; BABA 150 μM, 6 days after treatment): no significant change; PR-2 gene expression compared to the negative control ([3]; in vivo): 3.0 fold; pp2 (phloem protein-2) or calS1 expression (in words) ([3]; in vivo): no effect; Reduction of Las titer compared to control at the end of the experiments ([4]; Example 4, Midsweet orange (8-year), BABA 0.2 mM, foliar spraying): 0.66 log unit per gram plant tissue; Las population [4, 14]: (4.23 ± 1.22) × 10^6 Cells/g of plant tissue; Las population [4, 16]: (0.95 ± 0.26) × 10^7 Cells/g of plant tissue; HLB disease severity (sAUDPS) reduced by, compared with the negative control ([5]; AA 60 μM, BABA 15 μM): 28.6%; HLB disease severity (sAUDPS) reduced by, compared with the negative control ([5]; BABA 150 μM): 21.4%; Reduction of Las titer compared to control at the end of the experiments [6]: 0.66 log unit per gram plant tissue; Reduction of Las titer compared to control at the end of the experiments [7]: 0.68 log unit per gram plant tissue |
| O=C(O)C(=O)O [OA, oxalic acid] | 0.70 | 26.17 | 25.47 | significantly reduced |  |  | 2.83 | 26.59 | 23.76 | ΔCT compared with that of OTC (in words) ([2]; trunk injection): not significantly different |
| O=C(O)c1cc(Cl)nc(Cl)c1 [INA, 2,6-dichloro-isonicotinic acid, reference compound] |  |  |  | did not statistically significantly reduce | (2.07 ± 0.33) × 10^6 Cells/g of plant tissue | (3.91 ± 0.85) × 10^6 Cells/g of plant tissue |  |  |  | Las population [1, 11]: (4.06 ± 0.25) × 10^6 Cells/g of plant tissue; Las population ([1]; October 2014 (end of the experiment), BABA 15 μM, INA 0.1 mM, AA 60 μM): (5.94 ± 0.36) × 10^6 Cells/g of plant tissue; Percent juice content [8]: 50.5 a and 51.1 a; PR-2, calS1 or pp2 gene expression (in words) [3]: not able to induce |
| O=C(O)c1ccccc1O [SA, salicylic acid] | 0.95 | 24.88 | 23.93 | significantly reduced |  |  | 1.73 | 25.34 | 23.61 | ΔCT compared with that of OTC (in words) ([2]; trunk injection): not significantly different |
| CN(C)[C@@H]1C(O)=C(C(N)=O)C(=O)[C@@]2(O)C(O)=C3C(=O)c4c(O)cccc4[C@@](C)(O)[C@H]3[C@H](O)[C@@H]12 [OTC, oxytetracycline hydrochloride, reference compound] | 0.90 | 25.54 | 24.64 |  |  |  | 1.33 | 29.28 | 27.95 |  |
| CSC(=O)c1cccc2nnsc12 [ASM, acibenzolar-S-methyl] |  |  |  |  |  |  |  |  |  | Effect on Las bacterial populations (in words) ([2]; trunk injection): moderately reduced |
| O=CC[C@@H](O)[C@H](O)[C@H](O)CO [2-DDG, 2-deoxy-D-glucose] |  |  |  |  | (4.45 ± 0.94) × 10^6 Cells/g of plant tissue | (0.91 ± 0.32) × 10^7 Cells/g of plant tissue |  |  |  | Fruit acidity [8]: 0.73 a percent citric acid and 0.67 a percent citric acid and 0.69 a percent citric acid and 0.66 a percent citric acid; Fruit brix [8]: 9.63 a and 10.41 a and 9.20 a and 10.10 a; Fruit brix acidity ratio [8]: 15.19 a and 13.19 a and 15.17 a and 13.33 a; PR-2, pp2 or calS1 induction (in words) [9]: not able to induce; Las population [4, 14]: (2.64 ± 0.76) × 10^6 Cells/g of plant tissue; Las population [4, 16]: (4.17 ± 1.02) × 10^6 Cells/g of plant tissue; Reduction of Las titer compared to control at the end of the experiments [6]: 0.66 log unit per gram plant tissue; Reduction of Las titer compared to control at the end of the experiments [7]: 0.70 log unit per gram plant tissue |
| O=C1O[C@H]([C@@H](O)CO)C([O-])=C1O.[Na+] [AA, L-Ascorbic acid sodium salt, reference compound] | −0.50 | 21.65 | 22.15 |  | (2.99 ± 0.95) × 10^6 Cells/g of plant tissue | (3.98 ± 0.81) × 10^6 Cells/g of plant tissue |  |  |  | Las population [1, 11]: (3.56 ± 0.57) × 10^6 Cells/g of plant tissue; Fruit brix acidity ratio ([8]; sodium salt): 14.87 a and 12.55 a; Percent juice content ([8]; sodium salt): 53.3 a and 51.1 a; PR-2, calS1 or pp2 gene expression (in words) [3]: not able to induce; HLB disease severity (sAUDPS) reduced by, compared with the negative control ([5]; AA 60 μM, BABA 15 μM): 21.3%; Las population ([6]; Feb.2015, AA 600 μM, INA 0.5 mM, BTH 1.0 mM): (3.12 ± 0.22) × 10^7 a Cells/g of leaf tissue |
| O=P([O-])([O-])O.[K+].[K+] [PPD, potassium phosphate dibasic, reference compound] | 0.34 | 23.63 | 23.29 |  |  |  | 2.64 | 26.56 | 23.92 | Effect on Las bacterial populations (in words) ([2]; trunk injection): moderately reduced |
| O=S(=O)([O-])[O-].[Cu+2] [CuSO4, Copper Sulphate] |  |  |  |  |  |  |  |  |  | Yield [10]; 2013: 28.4 c kg/tree; Yield [10]; 2014: 24.1 c kg/tree |
| O=[N+]([O-])NC1=NCCN1Cc1ccc(Cl)nc1 [ICD, imidacloprid] | 0.13 | 24.02 | 23.89 |  |  |  | 0.08 | 24.50 | 24.42 | Effect on Las bacterial titer versus control one week after injection (in words) ([2]; in vivo): did not statistically significantly reduce |

Source: patent US20160227774A1 (priority 2015, published 2016)
